Results reported in patent publication US10314806B2 (SICHUAN JIUZHANG BIOLOGICAL SCIENCE AND TECHNOLOGY CO., LTD., priority 2014, dated 2019).

Key:
Lewis lung cancer = experiment: Inhibition of mice-transplanted tumor of Lewis lung cancer C57BL/6; type: in vivo; conditions: for Inhibitory rate / Tumor weight: 12 times
Procedure: Animal C57BL/6 mice, body weight 13˜20 g, half male and half female.
Cell Lines Lewis cells were mice lung cancer cells, and grew adhering to the wall in RPMI-1640 media containing 10% calf serum, 100 U·ml^−1 penicillin, 100 μg·ml^−1 streptomycin, and were cultured in an incubator at 37° C. under 5% CO2, followed by changing the medium and subculturing every two or three days.
(§1) Viable cells were counted by trypan blue staining. Cell suspension was subcutaneously inoculated at the left forelimb armpit of mice at 0.2 ml/animal (containing about 1×10^7 cells), and after tumor grew to 1 cm×1 cm×1 cm, mice were used in experiment. Mice tumors were aseptically stripped, and washed with Hank's solution thrice, to remove blood, fat and necrotic tissues. Tumors were cut to broken pieces of 1 mm×1 mm×1 mm, and washed with Hank's solution twice, to which physiological saline was added at a ratio of (1 g:3 ml), and then ground in a glass homogenizer and filtered by 80-100 mesh sieve to make a suspension of single cell. Viable cells were counted by trypan blue staining.
On the second day after inoculation, a dosage of 0.2 ml·10 g^−1 was administrated to each group by peritoneal injection (ip) for successive 12 times, once a day. When the tumor weight in negative control group was more than 1.0 g (tumor volume being about 0.5 cm^3), the experiment was stopped, and mice were sacrificed by cervical vertebrae removal and weighed. Tumors were stripped to calculate inhibitory rate.

EMT-6 breast cancer = experiment: Inhibition of BABLc mice-transplanted tumor of EMT-6 breast cancer; type: in vivo; conditions: for Inhibitory rate / Tumor weight: 9 days
Procedure: (1) Animal BABLc mice, ♀, body weight 17˜21 g
Cell Lines EMT-6 cell lines were mice breast cancer cells, and grew adhering to the wall in RPMI-1640 complete media containing 10% calf serum, 1 mmol/L glutamine, 100 U·ml^−1 penicillin and 100 μg·ml^−1 streptomycin, and were cultured in an incubator at 37° C. under 5% CO2, followed by changing the medium and subculturing every two or three days.
as §1
On the second day after inoculation, a dosage of 0.2 ml·10 g^−1 was administrated to each group by intraperitoneal injection (ip) for successive 9 days, once a day. When the tumor weight in negative group was more than 1.0 g(tumor volume being about 0.5 cm^3), the experiment was stopped, and mice were sacrificed by cervical vertebrae removal and weighed. Tumors were stripped to calculate inhibitory rate.

[1] = compared with the negative control group, obvious in the dosage groups of 10 mg/kg-60 mg/kg

**Q.** Which Inhibitory rate (Lewis lung cancer; 1 mg·kg^−1 ip once a day) does the source give for `O=C(/C=C/c1ccc(O)c(O)c1)O[C@@H]1C[C@](O)(C(=O)O)C[C@@H](O)[C@H]1O` [Commercially available chlorogenic acid, chlorogenic acid, reference compound] here?
**A.** 3.2%

**Q.** What about the Tumor weight (Lewis lung cancer; 1 mg·kg^−1 ip once a day) of the same compound?
**A.** 1.437 ± 0.466 g

**Q.** What about the Inhibitory rate (Lewis lung cancer; 5 mg·kg^−1 ip once a day) of the same compound?
**A.** 6.6%

**Q.** What about the Tumor weight (Lewis lung cancer; 5 mg·kg^−1 ip once a day) of the same compound?
**A.** 1.386 ± 0.398 g

**Q.** And the Inhibitory rate (Lewis lung cancer; 10 mg·kg^−1 ip once a day)?
**A.** 23.5%

**Q.** What about the Inhibitory rate (Lewis lung cancer; 20 mg·kg^−1 ip once a day) of the same compound?
**A.** 32.9%

**Q.** And the Tumor weight (Lewis lung cancer; 20 mg·kg^−1 ip once a day)?
**A.** 0.996 ± 0.428 g

**Q.** And the Inhibitory rate (Lewis lung cancer; 30 mg·kg^−1 ip once a day)?
**A.** 32.5%

**Q.** What about the Tumor weight (Lewis lung cancer; 30 mg·kg^−1 ip once a day) of the same compound?
**A.** 1.001 ± 0.204 g

**Q.** And the Inhibitory rate (Lewis lung cancer; 40 mg·kg^−1 ip once a day)?
**A.** 31.8%

**Q.** And the Tumor weight (Lewis lung cancer; 40 mg·kg^−1 ip once a day)?
**A.** 1.012 ± 0.369 g

**Q.** What about the Inhibitory rate (Lewis lung cancer; 50 mg·kg^−1 ip once a day) of the same compound?
**A.** 25.3%

**Q.** What about the Inhibitory rate (Lewis lung cancer; 60 mg·kg^−1 ip once a day) of the same compound?
**A.** 21.6%

**Q.** And the Inhibitory rate (Lewis lung cancer; 70 mg·kg^−1 ip once a day)?
**A.** 17.8%

**Q.** And the Tumor weight (Lewis lung cancer; 70 mg·kg^−1 ip once a day)?
**A.** 1.220 ± 0.237 g

**Q.** What about the Inhibitory rate (Lewis lung cancer; 80 mg·kg^−1 ip once a day) of the same compound?
**A.** 14.2%

**Q.** What about the Tumor weight (Lewis lung cancer; 80 mg·kg^−1 ip once a day) of the same compound?
**A.** 1.273 ± 0.511 g

**Q.** And the Inhibitory rate (Lewis lung cancer; 90 mg·kg^−1 ip once a day)?
**A.** 12.4%

**Q.** What about the Tumor weight (Lewis lung cancer; 90 mg·kg^−1 ip once a day) of the same compound?
**A.** 1.300 ± 0.462 g

**Q.** What about the Inhibitory rate (Lewis lung cancer; 100 mg·kg^−1 ip once a day) of the same compound?
**A.** 8.6%

**Q.** And the Tumor weight (Lewis lung cancer; 100 mg·kg^−1 ip once a day)?
**A.** 1.356 ± 0.338 g

**Q.** And the Inhibitory rate (EMT-6 breast cancer; 1 mg·kg^−1 ip once a day)?
**A.** 3.13%

**Q.** What about the Tumor weight (EMT-6 breast cancer; 1 mg·kg^−1 ip once a day) of the same compound?
**A.** 1.299 ± 0.253 g

**Q.** What about the Inhibitory rate (EMT-6 breast cancer; 5 mg·kg^−1 ip once a day) of the same compound?
**A.** 4.18%

**Q.** And the Tumor weight (EMT-6 breast cancer; 5 mg·kg^−1 ip once a day)?
**A.** 1.285 ± 0.324 g

**Q.** What about the Inhibitory rate (EMT-6 breast cancer; 10 mg·kg^−1 ip once a day) of the same compound?
**A.** 5.00%

**Q.** What about the Tumor weight (EMT-6 breast cancer; 10 mg·kg^−1 ip once a day) of the same compound?
**A.** 1.274 ± 0.854 g

**Q.** And the Inhibitory rate (EMT-6 breast cancer; 20 mg·kg^−1 ip once a day)?
**A.** 10.44%

**Q.** And the Inhibitory rate (EMT-6 breast cancer; 30 mg·kg^−1 ip once a day)?
**A.** 11.63%

**Q.** What about the Inhibitory rate (EMT-6 breast cancer; 40 mg·kg^−1 ip once a day) of the same compound?
**A.** 16.11%

**Q.** What about the Inhibitory rate (EMT-6 breast cancer; 50 mg·kg^−1 ip once a day) of the same compound?
**A.** 16.85%

**Q.** And the Inhibitory rate (EMT-6 breast cancer; 60 mg·kg^−1 ip once a day)?
**A.** 24.76%

**Q.** What about the Tumor weight (EMT-6 breast cancer; 60 mg·kg^−1 ip once a day) of the same compound?
**A.** 1.009 ± 0.123 g

**Q.** What about the Inhibitory rate (EMT-6 breast cancer; 70 mg·kg^−1 ip once a day) of the same compound?
**A.** 6.49%

**Q.** What about the Tumor weight (EMT-6 breast cancer; 70 mg·kg^−1 ip once a day) of the same compound?
**A.** 1.254 ± 0.514 g

**Q.** And the Inhibitory rate (EMT-6 breast cancer; 80 mg·kg^−1 ip once a day)?
**A.** 4.62%

**Q.** And the Tumor weight (EMT-6 breast cancer; 80 mg·kg^−1 ip once a day)?
**A.** 1.279 ± 0143 g

**Q.** What about the Inhibitory rate (EMT-6 breast cancer; 90 mg·kg^−1 ip once a day) of the same compound?
**A.** 3.21%

**Q.** And the Tumor weight (EMT-6 breast cancer; 90 mg·kg^−1 ip once a day)?
**A.** 1.298 ± 0.423 g

**Q.** And the Inhibitory rate (EMT-6 breast cancer; 100 mg·kg^−1 ip once a day)?
**A.** 2.16%

**Q.** And the Tumor weight (EMT-6 breast cancer; 100 mg·kg^−1 ip once a day)?
**A.** 1.312 ± 0.087 g

**Q.** What does the source list for `O=C(/C=C/c1ccc(O)c(O)c1)O[C@@H]1C[C@](O)(C(=O)O)C[C@@H](O)[C@H]1O` [Chlorogenic acid of the present invention]?
**A.** Inhibitory rate (Lewis lung cancer; 1 mg·kg^−1 ip once a day): 2.6%; Tumor weight (Lewis lung cancer; 1 mg·kg^−1 ip once a day): 1.445 ± 0.772 g; Inhibitory rate (Lewis lung cancer; 5 mg·kg^−1 ip once a day): 14.2%; Tumor weight (Lewis lung cancer; 5 mg·kg^−1 ip once a day): 1.273 ± 0.258 g; Inhibitory rate (Lewis lung cancer; 10 mg·kg^−1 ip once a day): 56.5%; Tumor weight (Lewis lung cancer; 10 mg·kg^−1 ip once a day): 0.646 ± 0.230 g; Inhibitory rate (Lewis lung cancer; 20 mg·kg^−1 ip once a day): 74.6%; Inhibitory rate (Lewis lung cancer; 30 mg·kg^−1 ip once a day): 78.3%; Tumor weight (Lewis lung cancer; 30 mg·kg^−1 ip once a day): 0.322 ± 0.111 g; Inhibitory rate (Lewis lung cancer; 40 mg·kg^−1 ip once a day): 76.4%; Tumor weight (Lewis lung cancer; 40 mg·kg^−1 ip once a day): 0.350 ± 0.078 g; Inhibitory rate (Lewis lung cancer; 50 mg·kg^−1 ip once a day): 65.6%; Tumor weight (Lewis lung cancer; 50 mg·kg^−1 ip once a day): 0.510 ± 0.241 g; Inhibitory rate (Lewis lung cancer; 60 mg·kg^−1 ip once a day): 59.2%; Tumor weight (Lewis lung cancer; 60 mg·kg^−1 ip once a day): 0.605 ± 0.363 g; Inhibitory rate (Lewis lung cancer; 70 mg·kg^−1 ip once a day): 32.3%; Tumor weight (Lewis lung cancer; 70 mg·kg^−1 ip once a day): 1.005 ± 0.657 g; Inhibitory rate (Lewis lung cancer; 80 mg·kg^−1 ip once a day): 24.8%; Inhibitory rate (Lewis lung cancer; 90 mg·kg^−1 ip once a day): 17.6%; Tumor weight (Lewis lung cancer; 90 mg·kg^−1 ip once a day): 1.223 ± 0.314 g; Inhibitory rate (Lewis lung cancer; 100 mg·kg^−1 ip once a day): 11.3%; Tumor weight (Lewis lung cancer; 100 mg·kg^−1 ip once a day): 1.316 ± 0.352 g; inhibitory action on mice-transplanted tumor of Lewis lung cancer C57BL/6 (Lewis lung cancer; [1]): obviously inhibitory action; Inhibitory rate (EMT-6 breast cancer; 1 mg·kg^−1 ip once a day): 26.40%; Tumor weight (EMT-6 breast cancer; 1 mg·kg^−1 ip once a day): 0.987 ± 0.154 g; Inhibitory rate (EMT-6 breast cancer; 5 mg·kg^−1 ip once a day): 41.16%; Tumor weight (EMT-6 breast cancer; 5 mg·kg^−1 ip once a day): 0.789 ± 0.087 g; Inhibitory rate (EMT-6 breast cancer; 10 mg·kg^−1 ip once a day): 48.55%; Tumor weight (EMT-6 breast cancer; 10 mg·kg^−1 ip once a day): 0.690 ± 0.188 g; Inhibitory rate (EMT-6 breast cancer; 20 mg·kg^−1 ip once a day): 69.95%; Inhibitory rate (EMT-6 breast cancer; 30 mg·kg^−1 ip once a day): 68.01%; Inhibitory rate (EMT-6 breast cancer; 40 mg·kg^−1 ip once a day): 66.37%; Tumor weight (EMT-6 breast cancer; 40 mg·kg^−1 ip once a day): 0.451 ± 0.097 g; Inhibitory rate (EMT-6 breast cancer; 50 mg·kg^−1 ip once a day): 60.55%; Tumor weight (EMT-6 breast cancer; 50 mg·kg^−1 ip once a day): 0.529 ± 0.168 g; Inhibitory rate (EMT-6 breast cancer; 60 mg·kg^−1 ip once a day): 49.22%; Tumor weight (EMT-6 breast cancer; 60 mg·kg^−1 ip once a day): 0.681 ± 0.156 g; Inhibitory rate (EMT-6 breast cancer; 70 mg·kg^−1 ip once a day): 47.95%; Tumor weight (EMT-6 breast cancer; 70 mg·kg^−1 ip once a day): 0.698 ± 0.112 g; Inhibitory rate (EMT-6 breast cancer; 80 mg·kg^−1 ip once a day): 41.16%; Tumor weight (EMT-6 breast cancer; 80 mg·kg^−1 ip once a day): 0.789 ± 0.087 g; Inhibitory rate (EMT-6 breast cancer; 90 mg·kg^−1 ip once a day): 35.94%; Tumor weight (EMT-6 breast cancer; 90 mg·kg^−1 ip once a day): 0.859 ± 0.0754 g; Inhibitory rate (EMT-6 breast cancer; 100 mg·kg^−1 ip once a day): 25.80%; Tumor weight (EMT-6 breast cancer; 100 mg·kg^−1 ip once a day): 0.995 ± 0.0256 g; inhibitory action on BABLc mice-transplanted tumor of EMT-6 (EMT-6 breast cancer; [1]): obviously inhibitory action
